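Briefly, cells in 96-well plates were exposed to five compound concentrations for 48 h, and endpoints were estimated by linear interpolation. GI50 = concentration required for 50% inhibition of growth.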 The source made the active and inactive calls. No stated cut-off is given here; in the data, active = GI50 up to about 1.1 µM and inactive = higher.
Tests used:
Assay in all cases: growth of human tumour cells (NCI), 48 h
[1] = test system: SW-620
[2] = test system: MOLT-4
[3] = test system: TK-10
[4] = test system: SK-MEL-28
[5] = test system: MDA-MB-231
[6] = test system: K562
[7] = test system: HCT-15
[8] = test system: NCI-H226
[9] = test system: LOX IMVI
[10] = test system: UACC-62
[11] = test system: SK-OV-3
[12] = test system: SF-539
[13] = test system: HOP-62
[14] = test system: BT-549
[15] = test system: NCI-H460
[16] = test system: CAKI-1
[17] = test system: UACC-257
[18] = test system: M14
[19] = test system: HCT-116
[20] = test system: 786-0
[21] = test system: A549
[22] = test system: SR
[23] = test system: Hs-578T
[24] = test system: OVCAR-3
[25] = test system: SNB-19
[26] = test system: NCI-H23
[27] = test system: SNB-75
[28] = test system: NCI-H522
[29] = test system: HOP-92
[30] = test system: HL-60
[31] = test system: HCC 2998
[32] = test system: SF-295
[33] = test system: SK-MEL-2
[34] = test system: SK-MEL-5
[35] = test system: IGROV-1
[36] = test system: ACHN
[37] = test system: A498
[38] = test system: SN12C
[39] = test system: MDA-MB-435
[40] = test system: OVCAR-8
[41] = test system: NCI/ADR-RES
[42] = test system: UO-31
[43] = test system: KM12
[44] = test system: T47D
[45] = test system: U-251
[46] = test system: COLO 205
[47] = test system: MDA-N
[48] = test system: OVCAR-5
[49] = test system: SF-268
[50] = test system: EKVX
[51] = test system: RXF 393
[52] = test system: HT-29
[53] = test system: OVCAR-4
[54] = test system: MCF7
[55] = test system: PC-3
[56] = test system: DU-145
[57] = test system: CCRF-CEM
[58] = test system: RPMI-8226
[59] = test system: Malme-3M

## CCOC(=O)N1CCN(c2nc(C)n(-c3ccccc3)c(=S)c2C#N)CC1
[1]
  GI50: > 63.4 µM (inactive)
[2]
  GI50: > 40.1 µM (inactive)
[3]
  GI50: > 81.1 µM (inactive)
[4]
  GI50: 61 µM (inactive)
[5]
  GI50: 23.4 µM (inactive)
[6]
  GI50: > 50 µM (inactive)
[7]
  GI50: > 55.6 µM
[8]
  GI50: > 61.8 µM (inactive)
[9]
  GI50: > 61.9 µM (inactive)
[10]
  GI50: > 43.6 µM (inactive)
[11]
  GI50: > 82.2 µM (inactive)
[12]
  GI50: > 83.4 µM (inactive)
[13]
  GI50: > 75.5 µM (inactive)
[14]
  GI50: > 51.9 µM (inactive)
[15]
  GI50: 52.7 µM (inactive)
[16]
  GI50: > 66.4 µM (inactive)
[17]
  GI50: > 86.9 µM (inactive)
[18]
  GI50: > 91 µM (inactive)
[19]
  GI50: > 68.2 µM (inactive)
[20]
  GI50: 42.8 µM (inactive)
[21]
  GI50: 97.9 µM (inactive)
[22]
  GI50: > 100 µM (inactive)
[23]
  GI50: 34.3 µM (inactive)
[24]
  GI50: > 75 µM (inactive)
[25]
  GI50: > 78.2 µM (inactive)
[26]
  GI50: > 54 µM (inactive)
[27]
  GI50: 37.2 µM (inactive)
[28]
  GI50: > 34.9 µM (inactive)
[29]
  GI50: > 65.9 µM (inactive)
[30]
  GI50: > 28.7 µM (inactive)
[31]
  GI50: > 100 µM (inactive)
[32]
  GI50: > 66.4 µM (inactive)
[33]
  GI50: > 76.4 µM (inactive)
[34]
  GI50: > 100 µM (inactive)
[35]
  GI50: 32.4 µM (inactive)
[36]
  GI50: > 65 µM (inactive)
[37]
  GI50: > 100 µM (inactive)
[38]
  GI50: > 100 µM (inactive)
[39]
  GI50: > 74.6 µM (inactive)
[40]
  GI50: 50.2 µM (inactive)
[41]
  GI50: 30 µM (inactive)
[42]
  GI50: > 48 µM (inactive)
[43]
  GI50: > 83.8 µM (inactive)
[44]
  GI50: > 100 µM (inactive)
[45]
  GI50: 75.3 µM (inactive)
[46]
  GI50: > 100 µM (inactive)
[47]
  GI50: > 50 µM (inactive)
[48]
  GI50: > 100 µM (inactive)
[49]
  GI50: 63.1 µM (inactive)
[50]
  GI50: > 82.2 µM (inactive)
[51]
  GI50: > 95.9 µM (inactive)
[52]
  GI50: > 100 µM (inactive)
[53]
  GI50: 44.1 µM (inactive)
[54]
  GI50: > 48.9 µM (inactive)
[55]
  GI50: > 43.4 µM (inactive)
[56]
  GI50: > 90.4 µM (inactive)
[57]
  GI50: > 23.4 µM (inactive)
[58]
  GI50: > 62.7 µM (inactive)

## COC1Cc2c(C)c(OC(C)=O)c3cccnc3c2O1 (stereo unspecified)
[1]
  GI50: 13.5 µM (inactive)
[2]
  GI50: 13.8 µM (inactive)
[3]
  GI50: > 100 µM (inactive)
[4]
  GI50: 24.7 µM (inactive)
[5]
  GI50: > 100 µM (inactive)
[6]
  GI50: 22.2 µM (inactive)
[7]
  GI50: 10.4 µM
[8]
  GI50: 39 µM (inactive)
[10]
  GI50: 14.7 µM (inactive)
[11]
  GI50: 26.9 µM (inactive)
[12]
  GI50: 48.2 µM (inactive)
[13]
  GI50: 25.1 µM (inactive)
[14]
  GI50: 19.7 µM (inactive)
[15]
  GI50: 25.4 µM (inactive)
[16]
  GI50: > 100 µM (inactive)
[17]
  GI50: 16 µM (inactive)
[18]
  GI50: 14.5 µM (inactive)
[19]
  GI50: 34.9 µM (inactive)
[20]
  GI50: 18.2 µM (inactive)
[21]
  GI50: 17.3 µM (inactive)
[22]
  GI50: 15.6 µM (inactive)
[23]
  GI50: 30.3 µM (inactive)
[24]
  GI50: 14.5 µM (inactive)
[25]
  GI50: > 100 µM (inactive)
[26]
  GI50: 20.6 µM (inactive)
[27]
  GI50: 17.4 µM (inactive)
[28]
  GI50: 2.75 µM (inactive)
[29]
  GI50: 18.6 µM (inactive)
[30]
  GI50: 6.79 µM (inactive)
[31]
  GI50: > 100 µM (inactive)
[32]
  GI50: 32.4 µM (inactive)
[33]
  GI50: 13.9 µM (inactive)
[34]
  GI50: 15.3 µM (inactive)
[35]
  GI50: 13.3 µM (inactive)
[36]
  GI50: 7.11 µM (inactive)
[37]
  GI50: > 100 µM (inactive)
[38]
  GI50: 18.5 µM (inactive)
[39]
  GI50: 17.6 µM (inactive)
[40]
  GI50: 15.1 µM (inactive)
[41]
  GI50: 17.6 µM (inactive)
[42]
  GI50: 13.9 µM (inactive)
[43]
  GI50: 36.6 µM (inactive)
[44]
  GI50: 24.1 µM (inactive)
[45]
  GI50: 37.2 µM (inactive)
[46]
  GI50: 91.8 µM (inactive)
[59]
  GI50: 13.8 µM (inactive)
[47]
  GI50: 20.8 µM (inactive)
[48]
  GI50: 18.2 µM (inactive)
[49]
  GI50: 16 µM (inactive)
[50]
  GI50: 15.4 µM (inactive)
[51]
  GI50: 14.9 µM (inactive)
[52]
  GI50: 43.8 µM (inactive)
[53]
  GI50: 16 µM (inactive)
[54]
  GI50: 18.9 µM (inactive)
[55]
  GI50: 36.7 µM (inactive)
[56]
  GI50: 17.3 µM (inactive)
[57]
  GI50: 10.7 µM (inactive)
[58]
  GI50: 28.6 µM (inactive)

— ChEMBL document CHEMBL1201862, “PubChem BioAssay data set” (2004)
